pEC50: −log10 of the molar value.

For one test, the system named is Daudi Cell Culture. The test can be described thus: Compound primary screening in Daudi cell culture. The test is classed as cell-based. Conditions: Daudi cells, 1250 cells per well, reads on Day 7. As for the experimental part:
Compound Primary Screening
1. Materials and Supplies
Plastic ware and consumables needed for this experiment include: Cell Culture media; Evaporation Buffer media; 100% DMSO; 96 well U-bottom sterile culture plates; 250 mL bottle; 1.5 mL Opaque amber epi tubes; Epi Tube rack; 300 mL reservoirs; 25 mL reservoir; 25 mL serological pipette tips; 5 mL serological pipette tips P1000 Pipette Tips; and P200 Pipette Tips.
Equipment needed for this experiment include: Viaflo 384 liquid handler; Eppendorf serological pipette; Eppendorf P1000 Pipette; and Eppendorf P200 Pipette
Daudi Cell Culture is also needed for this experiment.
Lastly, compounds (e.g., the compounds of this invention) to be tested are needed.
All steps were performed in a sterile environment inside the Biosafety cabinet.
A 96 well u-bottom plate was prepared by writing the experiment number, plate number, date and initials in the top right corner of the plate lid. With a sterile 300 ml reservoir, and 25 ml serological pipette, evaporation buffer media was pipetted into reservoir in 25 ml increments. Using the liquid handler, 150 ul of evaporation buffer media was pipetted from reservoir into rows A and H, and Columns 1 and 12 of the 96 well u-bottom plate. Cell cultures were counted to obtain the density of cells per ml, and the culture viability. The cell density information was used to obtain 1,000,000 cells from culture using a 5 mL serological pipette into an epi tube. The cell density information from the culture was used to calculate the number of cells and volume of media needed for the assay to seed 1250 cells in 130 ul of media per available culture well in the 96 well u-bottom plate. Rows B through F were used for cells (50 wells in total), with row G left for an empty media control. The calculation was overestimated by 10 mL to account for the dead volume in the 300 ml reservoir. Once the media volume was calculated, the appropriate volume of media was pipetted in 25 mL increments into the 250 mL bottle using a 25 mL serological pipette. The 250 ml bottle was capped tightly, and placed into a 37° C. water bath for 2 minutes. While the culture media was warming, 10 mL of fresh media was pipetted from the 500 mL culture media bottle into a sterile 25 mL reservoir. Using the Eppendorf multichannel pipette, 130 ul of media was pipetted from the 25 mL reservoir into row G of the 96 well u-bottom plate. Once the 250 mL bottle of media was warmed, the volume of culture needed was pipetted into the bottle, and mixed gently with a 25 mL serological pipette as to not create bubbles, and then the contents of the bottle were pipetted into a new 300 mL reservoir. Using the liquid handler, 130 ul of culture was pipetted from the 300 mL reservoir into rows B through F of the 96 well u-bottom plate. Once the culture was added, the plate was placed into a 37° C. incubator until the compound master plate was prepared for use.
Two 96 well u-bottom plates were prepared by writing the master plate name in the upper right corner of the plate lid. Labeling one DMSO master and the other Media Master. The compounds of interest were obtained from the laboratory freezer, and placed into a 25 well storage box with a lid, and set the box aside. The compounds were vortexed after thawing but before use. Using an automatic multichannel pipette, 20 ul of 100% DMSO was pipetted into wells B3-B11 through G3-G11 of the DMSO master plate. For each compound on the master plate, 50 ul of the compound were pipetted in the appropriate well of row 2 (reference plate map to determine appropriate well). A serial dilution was prepared beginning by aspirating 20 ul from row 2 and mixing with row 3, repeating until row 11 was reached. Using the liquid handler, 194 ul of Daudi media was dispensed into wells B2-B11 through G2-G11 of the Media master plate. Using the liquid handler, 6 ul from the DMSO master plate was aspirated and dispensed into the media master plate, mixing 100 ul twice. […]
In the case of `Cc1cc(-c2ncc(-c3ccc(N4CCCC4=O)cc3S(=O)(=O)NC(C)(C)C)s2)ccc1NC(=O)OC(C)C` [Compound J17], the “EC50 (μM)” value is “FAIL”.

Staying with this test, now noted: Homo sapiens, 168 h; Daudi cells, 1250 cells per well, reads on Day 7.
One may read the pEC50 as the negative decadic logarithm of the EC50, by convention in mol/L. Low values mean a large EC50, high ones a small EC50. Compound `CC(C)OC(=O)Nc1ccc(-c2ncc(-c3ccc(NC(=O)OCCN)cc3S(=O)(=O)NC(C)(C)C)s2)cc1` [Compound B13] showed a pEC50 above 5.30.
Turning to `COC(=O)[C@H](CO)NS(=O)(=O)c1cc(NC(C)=O)ccc1-c1cnc(-c2ccc(NC(=S)NC(C)C)cc2)s1` [Compound D15], the pEC50 is below 5.00.
With `CC(=O)Nc1ccc(-c2cnc(-c3ccc(NC(=O)CC(C)C)cc3)s2)c(S(=O)(=O)NC(C)(C)C)c1` [Compound G4], the negative-log EC50 (pEC50) was below 5.00.
`CCOC(=O)NCc1ccc(-c2cnc(-c3ccc(NC(=O)OC(C)C)cc3)s2)c(S(=O)(=O)NC(C)(C)C)c1` [Compound P8] gave a pEC50 above 5.00.
As for `CC(C)OC(=O)Nc1ccc(-c2ncc(-c3ccc(C(=O)NCc4ccccc4)cc3S(=O)(=O)NC(C)(C)C)s2)cc1` [Compound K1], the pEC50 was below 5.00.
In the case of `CC(C)NC(=S)Nc1ccc(-c2ncc(-c3ccc(N(C)C(=O)NCc4ccccc4)cc3S(=O)(=O)NC(C)(C)C)s2)cc1` [Compound Q3], the pEC50 was above 6.00.
`CC(C)OC(=O)Nc1ccc(-c2ncc(-c3ccc(NC(=O)OCc4ccncc4)cc3S(=O)(=O)NC(C)(C)C)s2)cc1` [Compound B4]: the pEC50 is above 6.00.
For the compound `CC(C)NC(=S)Nc1ccc(-c2ncc(-c3ccc(NC(=O)NCc4ncc[nH]4)cc3S(=O)(=O)NC(C)(C)C)s2)cc1` [Compound N5], the pEC50 was below 5.00.
With `CC(C)OC(=O)Nc1ccc(-c2ncc(-c3ccc(NC(=O)OCCc4ccccc4)cc3S(=O)(=O)NC(C)(C)C)s2)cc1` [Compound B8], the pEC50 was above 6.00.
Same read-out and setting: under `CC(C)OC(=O)Nc1ccc(-c2ncc(-c3ccc(NC(=O)c4ccccc4)cc3S(=O)(=O)NC(C)(C)C)s2)cc1` [Compound H9] stands above 6.00.
`CC(=O)Nc1ccc(-c2cnc(-c3ccc(NC(=S)NC(C)C)cc3)s2)c(S(=O)(=O)NCCCN)c1` [Compound D24] had a pEC50 below 5.00.
On the same count and under the same terms, under `CC(C)NC(=S)Nc1ccc(-c2ncc(-c3ccc(NC(=O)NCc4cccnc4)cc3S(=O)(=O)NC(C)(C)C)s2)cc1` [Compound M3] stands above 5.00; under `CC(C)NC(=S)Nc1ccc(-c2ncc(-c3ccc(NC(=O)NC(C)c4ccccc4)cc3S(=O)(=O)NC(C)(C)C)s2)cc1` (stereo not drawn) [Compound M7], above 5.00; under `CC(=O)Nc1ccc(-c2cnc(-c3ccc(NC(=S)NC(C)C)cc3)s2)c(S(=O)(=O)NCCN)c1` [Compound D17], below 5.00.
As to `CC(=O)Nc1ccc(-c2cnc(-c3ccc(NC(=S)NC(C)C)cc3)s2)c(S(=O)(=O)NCC(C)(C)CO)c1` [Compound D4], the pEC50 is below 5.00.
`CC(C)OC(=O)Nc1ccc(-c2ncc(-c3ccc(N(C)S(C)(=O)=O)cc3S(=O)(=O)NC(C)(C)C)s2)cc1` [Compound J18] showed a pEC50 above 5.30.
`COCCS(=O)(=O)Nc1ccc(-c2ncc(-c3ccc(NC(C)=O)cc3S(=O)(=O)NC(C)(C)C)s2)cc1` [Compound G8] gave a pEC50 below 5.00.
As to `CC(C)OC(=O)Nc1ccc(-c2ncc(-c3ccc(N4CCN(Cc5ccccc5)C4=O)cc3S(=O)(=O)NC(C)(C)C)s2)cc1` [Compound J21], the pEC50 is below 5.00.
As to `COCCNS(=O)(=O)c1cc(NC(C)=O)ccc1-c1cnc(-c2ccc(NC(=S)NC(C)C)cc2)s1` [Compound D27], the pEC50 is below 5.00.
In turn, `CC(C)NC(=S)Nc1ccc(-c2ncc(-c3ccc(Nc4nccn4C)cc3S(=O)(=O)NC(C)(C)C)s2)cc1` [Compound E17] had a pEC50 below 5.00.
As for `CC(=O)Nc1ccc(-c2cnc(-c3ccc(NC(=S)NC(C)C)cc3)s2)c(S(=O)(=O)NCc2ccccc2)c1` [Compound D19], the pEC50 is below 5.00.
Same read-out and setting: under `CCC(=O)NCc1ccc(-c2cnc(-c3ccc(NC(=O)OC(C)C)cc3)s2)c(S(=O)(=O)NC(C)(C)C)c1` [Compound P1] stands above 5.00; under `CC(C)NC(=S)Nc1ccc(-c2ncc(-c3ccc(NC(=O)NCc4nccs4)cc3S(=O)(=O)NC(C)(C)C)s2)cc1` [Compound M6], below 5.00.
`CC(C)NC(=S)Nc1ccc(-c2ncc(-c3ccc(NC(=O)NCc4cncnc4)cc3S(=O)(=O)NC(C)(C)C)s2)cc1` [Compound M5] showed a pEC50 below 5.00.
The compound `CC(C)OC(=O)Nc1ccc(-c2ncc(-c3ccc(NS(C)(=O)=O)cc3S(=O)(=O)NC(C)(C)C)s2)cc1` [Compound H11] had a pEC50 below 5.00.
`CC(C)OC(=O)Nc1ccc(-c2ncc(-c3ccc(-c4cnc[nH]4)cc3S(=O)(=O)NC(C)(C)C)s2)cc1` [Compound A6] had a pEC50 above 5.30.
With `CC(C)OC(=O)Nc1ccc(-c2ncc(-c3ccc(N4CCCC4=O)cc3S(=O)(=O)NC(C)(C)C)s2)cc1` [Compound J4], the pEC50 is above 5.30.
The compound `CC(C)OC(=O)Nc1ccc(-c2ncc(-c3ccc(CNC(=O)C4CCNCC4)cc3S(=O)(=O)NC(C)(C)C)s2)cc1` [Compound O1] had a pEC50 above 5.00.
Same read-out and setting: under `CC(C)NC(=S)Nc1ccc(-c2ncc(-c3ccc(NC(=O)N(C)Cc4ccccc4)cc3S(=O)(=O)NC(C)(C)C)s2)cc1` [Compound M1] stands below 5.00; under `CC(C)OC(=O)Nc1ccc(-c2ncc(-c3ccc(CNC(=O)c4ccncc4)cc3S(=O)(=O)NC(C)(C)C)s2)cc1` [Compound O7], above 5.30.
In turn, `CC(C)OC(=O)Nc1ccc(-c2ncc(-c3ccc(CNC(=O)Cc4ccncc4)cc3S(=O)(=O)NC(C)(C)C)s2)cc1` [Compound O5] had a pEC50 above 5.30.
For the compound `CC(=O)Nc1ccc(-c2ncc(-c3ccc(NC(=S)NC(C)C)cc3S(=O)(=O)NC(C)(C)C)s2)cc1` [Compound E5], the pEC50 was above 5.00.
`CNS(=O)(=O)c1cc(NC(C)=O)ccc1-c1cnc(-c2ccc(NC(=S)NC(C)C)cc2)s1` [Compound D6] gave a pEC50 below 5.00.
For `CC(C)OC(=O)Nc1ccc(-c2ncc(-c3ccc(NC(=O)OCCO)cc3S(=O)(=O)NC(C)(C)C)s2)cc1` [Compound B1], the pEC50 was above 5.30.
On the same count and under the same terms, under `CC(=O)Nc1ccc(-c2cnc(-c3ccc(NS(C)(=O)=O)cc3)s2)c(S(=O)(=O)NC(C)(C)C)c1` [Compound G5] stands below 5.00.
On to `CC(=O)Nc1ccc(-c2cnc(-c3ccc(NC(=S)NC(C)C)cc3)s2)c(S(=O)(=O)N[C@H](CO)C(C)C)c1` [Compound D18], for which the pEC50 is below 5.00.
Turning to `CC(C)OC(=O)Nc1ccc(-c2ncc(-c3ccc(NC(=O)OC(C)C)cc3S(=O)(=O)NC(C)(C)C)s2)cc1` [Compound H8], the pEC50 is above 6.00.
In turn, `CC(C)NC(=S)Nc1ccc(-c2ncc(-c3ccc(NC(=O)NCc4ccc(O)cc4)cc3S(=O)(=O)NC(C)(C)C)s2)cc1` [Compound N1, N-(tert-butyl)-5-(3-(4-hydroxybenzyl)ureido)-2-(2-(4-(3-isopropylthioureido)phenyl)thiazol-5-yl)benzenesulfonamide] showed a pEC50 above 5.00.
In turn, `CC(=O)Nc1ccc(-c2ncc(-c3ccc(N)cc3S(=O)(=O)NC(C)(C)C)s2)cc1` [Compound E4] had a pEC50 below 5.00.
`COc1cc(-c2ncc(-c3ccc(NC(=O)OC(C)C)cc3S(=O)(=O)NC(C)(C)C)s2)ccc1NC(=O)OC(C)C` [Compound R3] had a pEC50 above 5.30.
`CC(C)OC(=O)Nc1ccc(-c2ncc(-c3ccc(NC(=O)[C@H]4CCCN4)cc3S(=O)(=O)NC(C)(C)C)s2)cc1` [Compound H2]: the negative logarithm of the EC50 (pEC50) is above 5.30.
Compound `CNCCNS(=O)(=O)c1cc(NC(C)=O)ccc1-c1cnc(-c2ccc(NC(=S)NC(C)C)cc2)s1` [Compound D29] gave a pEC50 below 5.00.
For `CC(=O)Nc1ccc(-c2cnc(-c3ccc(NC(=S)NC(C)C)cc3S(=O)(=O)NC(C)(C)C)s2)c(S(=O)(=O)NC(C)(C)C)c1` [Compound E9], the pEC50 is above 6.00.
For the compound `COC(=O)[C@@H](NS(=O)(=O)c1cc(NC(C)=O)ccc1-c1cnc(-c2ccc(NC(=S)NC(C)C)cc2)s1)C(C)C` [Compound D2], the pEC50 was below 5.00.

Source of the values: patent US11291655B2, “RAD51 inhibitors” (Cyteir Therapeutics, Inc., priority 2017, dated 2022).
